What was measured:
[1] = molecular target: Myeloid Cell Leukemia 1 (Mcl-1) (Homo sapiens, UniProt Q07820); assay: Terbium labeled Mcl-1 HTRF binding assay, displacement of Cy5-labeled BIM BH3 peptide; details: 25 pM Tb-Mcl-1, 8 nM Cy5 Bim peptide, 60 min at room temperature, read-out: Tb-MCL1 Ki
Protocol: Terbium labeled Myeloid Cell Leukemia 1(Mcl-1) homogeneous time-resolved fluorescence (HTRF) binding assay utilizing the BIM BH3 peptide (H2N—(C/Cy5Mal) WIAQELRRIGDEFN-OH) as the binding partner for Mcl-1.
This assay evaluated inhibition of the BH3 domain: Mcl-1 interaction by measuring the displacement of Cy5-labeled BIM BH3 peptide (H2N—(C/Cy5Mal) WIAQELRRIGDEFN-OH) in the HTRF assay format.
The following assay and stock buffers were prepared for use in the assay: (a) Stock buffer: 10 mM Tris-HCl, pH=7.5+150 mM NaCl, filtered, sterilized, and stored at 4° C.; and (b) 1× assay buffer, where the following ingredients were added fresh to stock buffer: 2 mM dithiothreitol (DTT), 0.0025% Tween-20, 0.1 mg/mL bovine serum albumin (BSA). The 1×Tb-Mcl-1+Cy5 Bim peptide solution was prepared by diluting the protein stock solution using the 1× assay buffer (b) to 25 pM Tb-Mel-1 and 8 nM Cy5 Bim peptide.
Using the Acoustic ECHO, 100 nL of 100× test compound(s) were dispensed into individual wells of a white 384-well Perkin Elmer Proxiplate, for a final compound concentration of 1× and final DMSO concentration of 1%. Inhibitor control and neutral control (NC, 100 nL of 100% DMSO) were stamped into columns 23 and 24 of assay plate, respectively. Into each well of the plate was then dispensed 10 μL of the 1×Tb-Mcl-1+Cy5 Bim peptide solution. The plate was centrifuged with a cover plate at 1000 rpm for 1 minute, then incubated for 60 minutes at room temperature with plates covered.
The TR-FRET signal was read on an BMG PHERAStar FSX MicroPlate Reader at room temperature using the HTRF optic module (HTRF: excitation: 337 nm, light source: laser, emission A: 665 nm, emission B: 620 nm, integration start: 60 μs, integration time: 400 μs).
The BMG PHERAStar FSX MicroPlate Reader was used to measure fluorescence intensity at two emission wavelengths—665 nm and 620 nm—and report relative fluorescence units (RFU) for both emissions, as well as a ratio of the emissions (665 nm/620 nm)*10,000. The RFU values were normalized to percent inhibition as follows:
% inhibition(((NC−IC)−(compound−IC))(NC−IC))*100
where IC (inhibitor control, low signal)=mean signal of 1×Tb-MCl-1+Cy5 Bim peptide+inhibitor control or 100% inhibition of Mcl-1; NC (neutral control, high signal)=mean signal 1×Tb-MCl-1+Cy5 Bim peptide with DMSO only or 0% inhibition An 11-point dose response curve was generated to determine IC50 values (using GenData) based on the following equation:
where Y=% inhibition in the presence of X inhibitor concentration; Top=100% inhibition derived from the IC (mean signal of Mcl-1+inhibitor control); Bottom=0% inhibition derived from the NC (mean signal of Mcl-1+DMSO); Hillslope=Hill coefficient; and IC50=concentration of compound with 50% inhibition in relation to top/neutral control (NC).
Representative compounds of the present invention were tested according to the procedure as described above, with results as listed in the Table below (n.d. means not determined).

[2] = test system: MOLP-8 human multiple myeloma cell line; assay: Caspase-Glo 3/7 apoptosis induction assay in MOLP-8 cells; type: cell-based; details: caspase-3/7 activity, 2 hours at 37° C., averaged over all runs on all batches, read-out: MOLP8 AC50
Text: MCL-1 is a regulator of apoptosis and is highly over-expressed in tumor cells that escape cell death. The assay evaluates the cellular potency of small-molecule compounds targeting regulators of the apoptosis pathway, primarily MCL-1, Bfl-1, Bcl-2, and other proteins of the Bcl-2 family. Protein-protein inhibitors disrupting the interaction of anti-apoptotic regulators with BH3-domain proteins initiate apoptosis.
The Caspase-Glo® 3/7 Assay is a luminescent assay that measures caspase-3 and −7 activities in purified enzyme preparations or cultures of adherent or suspension cells. The assay provides a proluminescent caspase-3/7 substrate, which contains the tetrapeptide sequence DEVD. This substrate is cleaved to release aminoluciferin, a substrate of luciferase used in the production of light. Addition of the single Caspase-Glo® 3/7 Reagent in an “add-mix-measure” format results in cell lysis, followed by caspase cleavage of the substrate and generation of a “glow-type” luminescent signal.
This assay uses the MOLP-8 human multiple myeloma cell line, which is sensitive to MCL-1 inhibition.
Cell cultures were maintained between 0.2 and 2.0×10^6 cells/mL. The cells were harvested by collection in 50 mL conical tubes. The cells were then pelleted at 500 g for 5 mins before removing supernatant and resuspension in fresh pre-warmed culture medium. The cells were counted and diluted as needed.
The assay reagent was prepared by transferring the buffer solution to the substrate vial and mixing. The solution may be stored for up to 1 week at 4° C. with negligible loss of signal.
Compounds were delivered in assay-ready plates (Proxiplate) and stored at −20° C.
Assays always include 1 reference compound plate containing reference compounds. The plates were spotted with 40 nL of compounds (0.5% DMSO final in cells; serial dilution; 30 μM highest conc. 1/3 dilution, 10 doses, duplicates). The compounds were used at room temperature and 4 μL of pre-warmed media was added to all wells except column 2 and 23. The negative control was prepared by adding 1% DMSO in media. The positive control was prepared by adding the appropriate positive control compound in final concentration of 60 μM in media. The plate was prepared by adding 4 μL negative control to column 23, 4 μL positive control to column 2 and 4 μL cell suspension to all wells in the plate. The plate with cells was then incubated at 37° C. for 2 hours. The assay signal reagent is the Caspase-Glo solution described above, and 8 μL was added to all wells. The plates were then sealed and measured after 30 minutes.
The activity of a test compound was calculated as percent change in apoptosis induction as follows: • LC=median of the Low Control values • =Central Reference in Screener • =DMSO • =[…] • HC=Median of the High Control values • =Scale Reference in Screener • =30 μM of positive control • =100% apoptosis induction
% Effect (AC50)=100−((sample−LC)/(HC−LC))*100
% Control=(sample/HC)*100
% Control min=((sample−LC)/(HC−LC))*100

Myeloid Cell Leukemia 1 (Mcl-1), sequence (Q07820 whole entry): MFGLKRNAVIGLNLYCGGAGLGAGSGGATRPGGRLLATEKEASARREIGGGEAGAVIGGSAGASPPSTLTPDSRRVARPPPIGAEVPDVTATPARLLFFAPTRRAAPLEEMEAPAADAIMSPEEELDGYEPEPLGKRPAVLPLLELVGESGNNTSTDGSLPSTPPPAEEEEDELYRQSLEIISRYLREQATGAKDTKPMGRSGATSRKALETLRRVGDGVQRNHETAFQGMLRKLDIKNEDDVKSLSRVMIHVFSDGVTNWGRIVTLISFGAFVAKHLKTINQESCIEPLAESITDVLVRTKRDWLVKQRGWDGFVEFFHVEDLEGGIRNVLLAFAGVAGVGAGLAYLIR

SMILES	Ki [1] [nM]	AC50 [2] [nM]
COCCN(CCOC)C(=O)[C@H]1/C=C/C[C@H](C)[C@@H](C)S(=O)(=O)NC(=O)c2ccc3c(c2)N(C[C@@H]2CCCN21)C[C@@]1(CCCc2cc(Cl)ccc21)CO3 [Compound 1]	0.03	56
C[C@@H]1[C@@H](C)C/C=C/[C@H](C(=O)N(C)CCC2CCOCC2)N2CCC[C@H]2CN2C[C@@]3(CCCc4cc(Cl)ccc43)COc3ccc(cc32)C(=O)NS1(=O)=O [Compound 2]	0.058	130
C[C@@H]1[C@@H](C)C/C=C/[C@H](C(=O)N(C)CC2CCOCC2)N2CCC[C@H]2CN2C[C@@]3(CCCc4cc(Cl)ccc43)COc3ccc(cc32)C(=O)NS1(=O)=O [Compound 3]	0.027	81
C[C@@H]1[C@@H](C)C/C=C/[C@H](C(=O)N(C)C)N2CCC[C@H]2CN2C[C@@]3(CCCc4cc(Cl)ccc43)COc3ccc(cc32)C(=O)NS1(=O)=O [Compound 4]	0.142	180
CC1CC=CC(C(=O)N(C)CCN2CCOCC2)N2CCCC2CN2CC3(CCCc4cc(Cl)ccc43)COc3ccc(cc32)C(=O)NS(=O)(=O)C1C (centres unmarked) [Compound 5]	0.024	180
C[C@@H]1[C@@H](C)C/C=C/[C@@H](C(=O)N2CCOCC2)N2CCC[C@H]2CN2C[C@@]3(CCCc4cc(Cl)ccc43)COc3ccc(cc32)C(=O)NS1(=O)=O [Compound 6]		1950
C[C@@H]1[C@@H](C)C/C=C/[C@H](C(=O)N2CCOCC2)N2CCC[C@H]2CN2C[C@@]3(CCCc4cc(Cl)ccc43)COc3ccc(cc32)C(=O)NS1(=O)=O [Compound 7]	0.089	360
C[C@@H]1[C@@H](C)C/C=C/[C@H](C(=O)N2CCOCC2)N2CC[C@H]2CN2C[C@@]3(CCCc4cc(Cl)ccc43)COc3ccc(cc32)C(=O)NS1(=O)=O [Compound 8]	0.705	340
C[C@@H]1[C@@H](C)C/C=C/[C@@H](C(=O)N2CCOCC2)N2CC[C@H]2CN2C[C@@]3(CCCc4cc(Cl)ccc43)COc3ccc(cc32)C(=O)NS1(=O)=O [Compound 9]	0.196	660

— patent publication US20250051359A1, “MACROCYCLIC 2-AMINO-BUT-3-ENAMIDES AS INHIBITORS OF MCL-1” (JANSSEN PHARMACEUTICA NV, priority 2021, published 2025)
